# Measurements: patent US20060263294A1, “Tumor targeting agents and uses thereof” (KARYON OY, priority 2002, published 2006)
# Bridge positions count the residues as written; N and C are the ends. Peptide text beside a SMILES is read from it. * marks the point of attachment. X1 = COc1cccc2c1C(=O)c1c(O)c3c(c(O)c1C2=O)C[C@@](C)(/C(CO)=N/OCC(=O)*)C[C@@H]3OC1CC(N)C(O)C(C)O1
# Test system: C8161M/T1 melanoma cells tumours
# Test: Therapeutic effect of targeting agent comprising cytotoxic effector unit on melanoma tumors
# Format: in vivo, Athymic-nu mice
# Settings: 1,43 mg/kg i.v. twice a week, five doses; s.c. C8161M/T1 melanoma; FIG. 1
# Method: 1 million C8161M/T1 melanoma cells were injected subcutaneously into flank of eight Athymic-nu mice and tumours were allowed to grow for one week. The mice were then divided into three groups those received the following treatments: • Group DMEM: two mice, DMEM only • Group Dox: two mice, 1,43 mg/kg doxorubicin dissolved in DMEM • Group pept+dox: four mice, 1,43 mg/kg Dxrb-Aoa-DLRSK (doxorubicin linked to targeting mofif LRS) dissolved in DMEM (dose equimolar to Group Dox)
# Treatments were administered i.v. twice a week (Tuesdays and Fridays), total of five doses were injected. Tumours were measured with a calliper in two perpendicular directions on each injection day and on the day the animals were sacrificed. Tumour volume was calculated by the formula for ellipsoid: Volume=(length×width^2)×0.5
smiles,measurement,value
COc1cccc2c1C(=O)c1c(O)c3c(c(O)c1C2=O)C[C@@](C)(/C(CO)=N/OCC(=O)N[C@H]1CC(=O)NCCCC[C@@H](C(=O)O)NC(=O)[C@H](CO)NC(=O)[C@H](CCCNC(=N)N)NC(=O)[C@H](CC(C)C)NC1=O)C[C@@H]3OC1CC(N)C(O)C(C)O1 (some centres unmarked) [Dxrb-Aoa-DLRSK] (X1-DLRSK-OH; lactam 1-5),selective targeting to melanoma tumor in vivo,selectively targets to melanoma tumor in vivo
same,therapeutic effect (tumour volume) compared with doxorubicin,significantly increases the therapeutic effect of doxorubicin
